ChEMBL document CHEMBL5725962, “Pyrazolo[1,5-A]PYRAZIN-4-YL derivatives” (2018)

How the values were obtained:
[1] = molecular target: Non-receptor tyrosine-protein kinase TYK2 (Homo sapiens, UniProt P29597); assay: (§1) JAK Caliper Enzyme Assay at 1 mM ATP: Compounds were added to a 384-well plate. Reaction mixtures contained 10 mM HEPES, pH 7.4, 10 mM MgCl2, 0.01% BSA, 0.0005% Tween 20, 1 mM ATP and 1 μM peptide substrate. The JAK1 and TYK2 assays contained 1 μM of the IRStide peptide (5FAM-[…]) and the JAK2 and JAK3 assays contained 1 μM of the JAKtide peptide (FITC-[…]). The assays were initiated by the addition of 20 nM JAK1, 1 nM JAK2, 1 nM JAK or 1 nM TYK2 enzyme and were incubated at room temperature for three hours for JAK1, 60 minutes for JAK2, 75 minutes for JAK3 or 135 minutes for TYK2. Enzyme concentrations and incubation times were optimized for each new enzyme preps and were modified slightly over time to ensure 20% to 30% phosphorylation. The assays were stopped with 15 μL of 180 mM HEPES, pH 7.4, 20 mM EDTA, and 0.2% Coating Reagent 3. The assay plates were placed on a Caliper Life Science LC3000 instrument, and each well was sampled using appropriate separation conditions to measure the unphosphorylated and phosphorylated peptide.
Non-receptor tyrosine-protein kinase TYK2, sequence (P29597 whole entry): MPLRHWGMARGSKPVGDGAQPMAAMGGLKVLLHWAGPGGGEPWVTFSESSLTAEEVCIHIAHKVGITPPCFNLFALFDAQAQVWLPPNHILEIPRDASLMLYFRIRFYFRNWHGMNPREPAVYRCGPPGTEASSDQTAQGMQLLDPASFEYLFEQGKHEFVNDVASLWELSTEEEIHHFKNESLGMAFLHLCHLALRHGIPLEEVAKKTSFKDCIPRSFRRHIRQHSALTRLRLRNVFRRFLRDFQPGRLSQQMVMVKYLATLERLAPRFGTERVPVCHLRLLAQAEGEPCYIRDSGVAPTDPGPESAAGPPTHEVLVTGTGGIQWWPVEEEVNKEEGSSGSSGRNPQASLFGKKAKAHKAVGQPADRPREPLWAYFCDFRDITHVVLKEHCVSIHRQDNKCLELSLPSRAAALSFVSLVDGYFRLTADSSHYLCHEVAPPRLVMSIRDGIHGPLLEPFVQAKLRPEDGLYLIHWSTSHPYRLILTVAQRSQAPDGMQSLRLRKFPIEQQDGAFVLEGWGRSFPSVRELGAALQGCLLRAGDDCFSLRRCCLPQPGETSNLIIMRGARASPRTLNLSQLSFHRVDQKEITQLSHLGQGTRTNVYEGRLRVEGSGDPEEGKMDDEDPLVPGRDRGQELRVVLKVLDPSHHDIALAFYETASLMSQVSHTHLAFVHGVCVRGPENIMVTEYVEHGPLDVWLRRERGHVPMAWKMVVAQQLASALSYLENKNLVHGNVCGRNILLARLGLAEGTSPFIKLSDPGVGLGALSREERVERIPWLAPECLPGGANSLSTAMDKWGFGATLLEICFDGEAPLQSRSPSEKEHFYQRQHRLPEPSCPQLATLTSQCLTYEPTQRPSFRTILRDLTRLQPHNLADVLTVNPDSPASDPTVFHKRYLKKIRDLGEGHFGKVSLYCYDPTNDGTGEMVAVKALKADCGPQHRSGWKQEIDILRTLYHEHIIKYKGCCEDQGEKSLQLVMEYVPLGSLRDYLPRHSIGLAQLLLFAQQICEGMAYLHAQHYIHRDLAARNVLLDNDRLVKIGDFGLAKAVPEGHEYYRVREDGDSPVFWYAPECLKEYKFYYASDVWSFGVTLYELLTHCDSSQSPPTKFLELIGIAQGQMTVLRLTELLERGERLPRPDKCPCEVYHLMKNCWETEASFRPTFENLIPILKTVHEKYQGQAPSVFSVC

[2] = molecular target: Tyrosine-protein kinase JAK1 (Homo sapiens, UniProt P23458); assay: as §1
Tyrosine-protein kinase JAK1, sequence (P23458 whole entry): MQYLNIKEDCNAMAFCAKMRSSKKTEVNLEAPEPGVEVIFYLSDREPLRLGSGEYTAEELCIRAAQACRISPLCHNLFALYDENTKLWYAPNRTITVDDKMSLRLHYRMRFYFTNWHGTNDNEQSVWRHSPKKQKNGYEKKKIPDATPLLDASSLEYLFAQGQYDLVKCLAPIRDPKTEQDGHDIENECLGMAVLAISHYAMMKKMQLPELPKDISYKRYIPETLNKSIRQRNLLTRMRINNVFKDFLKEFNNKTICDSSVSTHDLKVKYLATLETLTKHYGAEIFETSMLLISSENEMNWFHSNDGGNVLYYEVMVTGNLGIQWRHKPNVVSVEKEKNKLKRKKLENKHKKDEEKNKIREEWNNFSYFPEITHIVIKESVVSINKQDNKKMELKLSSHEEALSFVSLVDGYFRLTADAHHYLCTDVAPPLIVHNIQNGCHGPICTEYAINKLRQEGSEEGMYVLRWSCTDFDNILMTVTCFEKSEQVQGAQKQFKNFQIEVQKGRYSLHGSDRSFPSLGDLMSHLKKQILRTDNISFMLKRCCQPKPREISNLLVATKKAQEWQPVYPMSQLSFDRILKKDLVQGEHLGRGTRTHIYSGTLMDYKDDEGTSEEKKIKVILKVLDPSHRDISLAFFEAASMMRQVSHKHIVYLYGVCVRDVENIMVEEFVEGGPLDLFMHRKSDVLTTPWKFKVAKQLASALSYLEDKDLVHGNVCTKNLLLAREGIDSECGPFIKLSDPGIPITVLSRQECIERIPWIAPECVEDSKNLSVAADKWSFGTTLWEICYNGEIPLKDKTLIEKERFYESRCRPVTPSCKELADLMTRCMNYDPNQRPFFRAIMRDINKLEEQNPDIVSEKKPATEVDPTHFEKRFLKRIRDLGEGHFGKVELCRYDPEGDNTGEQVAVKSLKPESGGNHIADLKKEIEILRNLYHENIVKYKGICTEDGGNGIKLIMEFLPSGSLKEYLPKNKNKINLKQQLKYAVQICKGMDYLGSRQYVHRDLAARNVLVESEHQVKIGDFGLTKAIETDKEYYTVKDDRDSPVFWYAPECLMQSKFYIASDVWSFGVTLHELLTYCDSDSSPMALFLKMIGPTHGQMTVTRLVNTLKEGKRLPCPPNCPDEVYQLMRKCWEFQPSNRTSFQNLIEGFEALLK

[3] = molecular target: T1, Tyrosine-protein kinase JAK3 (Homo sapiens, UniProt P52333); assay: as §1
T1 sequence (P52333 whole entry): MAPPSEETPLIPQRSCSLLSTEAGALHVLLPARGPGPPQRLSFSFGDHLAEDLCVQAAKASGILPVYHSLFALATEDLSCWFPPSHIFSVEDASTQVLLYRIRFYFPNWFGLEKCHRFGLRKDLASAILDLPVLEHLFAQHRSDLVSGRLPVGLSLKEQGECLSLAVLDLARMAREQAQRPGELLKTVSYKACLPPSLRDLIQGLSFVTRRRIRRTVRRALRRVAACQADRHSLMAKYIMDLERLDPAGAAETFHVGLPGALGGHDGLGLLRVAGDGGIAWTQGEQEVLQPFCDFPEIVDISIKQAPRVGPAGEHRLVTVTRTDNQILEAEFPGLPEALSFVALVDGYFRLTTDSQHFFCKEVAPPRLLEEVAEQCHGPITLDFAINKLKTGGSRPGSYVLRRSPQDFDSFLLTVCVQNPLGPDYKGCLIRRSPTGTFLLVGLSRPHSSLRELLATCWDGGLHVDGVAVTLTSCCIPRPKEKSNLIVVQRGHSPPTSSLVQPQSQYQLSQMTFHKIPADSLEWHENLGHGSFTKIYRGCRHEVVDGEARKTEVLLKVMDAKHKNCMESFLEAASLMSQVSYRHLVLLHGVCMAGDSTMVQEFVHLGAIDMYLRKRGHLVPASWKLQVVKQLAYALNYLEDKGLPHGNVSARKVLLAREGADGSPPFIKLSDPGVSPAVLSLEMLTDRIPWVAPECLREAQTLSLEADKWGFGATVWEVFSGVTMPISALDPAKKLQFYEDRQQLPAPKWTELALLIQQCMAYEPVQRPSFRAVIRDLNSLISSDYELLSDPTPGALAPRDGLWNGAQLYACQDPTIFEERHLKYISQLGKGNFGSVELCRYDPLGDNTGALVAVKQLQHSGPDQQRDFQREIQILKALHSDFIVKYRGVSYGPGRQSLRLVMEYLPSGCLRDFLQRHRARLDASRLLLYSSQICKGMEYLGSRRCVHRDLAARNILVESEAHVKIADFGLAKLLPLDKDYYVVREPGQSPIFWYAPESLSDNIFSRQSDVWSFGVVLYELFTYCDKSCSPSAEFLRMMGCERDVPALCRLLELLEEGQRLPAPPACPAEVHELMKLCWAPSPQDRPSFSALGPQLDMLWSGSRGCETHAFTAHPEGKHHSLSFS

[4] = molecular target: Tyrosine-protein kinase JAK2 (Homo sapiens, UniProt O60674); assay: Reaction mixtures contained 10 mM HEPES, pH 7.4, 10 mM MgCl2, 0.01% BSA, 0.0005% Tween 20, 1 mM ATP and 1 μM peptide substrate. […] Enzyme concentrations and incubation times were optimized for each new enzyme preps and were modified slightly over time to ensure 20% to 30% phosphorylation. The assays were stopped with 15 μL of 180 mM HEPES, pH 7.4, 20 mM EDTA, and 0.2% Coating Reagent 3. The assay plates were placed on a Caliper Life Science LC3000 instrument, and each well was sampled using appropriate separation conditions to measure the unphosphorylated and phosphorylated peptide.
Tyrosine-protein kinase JAK2, sequence (O60674 whole entry): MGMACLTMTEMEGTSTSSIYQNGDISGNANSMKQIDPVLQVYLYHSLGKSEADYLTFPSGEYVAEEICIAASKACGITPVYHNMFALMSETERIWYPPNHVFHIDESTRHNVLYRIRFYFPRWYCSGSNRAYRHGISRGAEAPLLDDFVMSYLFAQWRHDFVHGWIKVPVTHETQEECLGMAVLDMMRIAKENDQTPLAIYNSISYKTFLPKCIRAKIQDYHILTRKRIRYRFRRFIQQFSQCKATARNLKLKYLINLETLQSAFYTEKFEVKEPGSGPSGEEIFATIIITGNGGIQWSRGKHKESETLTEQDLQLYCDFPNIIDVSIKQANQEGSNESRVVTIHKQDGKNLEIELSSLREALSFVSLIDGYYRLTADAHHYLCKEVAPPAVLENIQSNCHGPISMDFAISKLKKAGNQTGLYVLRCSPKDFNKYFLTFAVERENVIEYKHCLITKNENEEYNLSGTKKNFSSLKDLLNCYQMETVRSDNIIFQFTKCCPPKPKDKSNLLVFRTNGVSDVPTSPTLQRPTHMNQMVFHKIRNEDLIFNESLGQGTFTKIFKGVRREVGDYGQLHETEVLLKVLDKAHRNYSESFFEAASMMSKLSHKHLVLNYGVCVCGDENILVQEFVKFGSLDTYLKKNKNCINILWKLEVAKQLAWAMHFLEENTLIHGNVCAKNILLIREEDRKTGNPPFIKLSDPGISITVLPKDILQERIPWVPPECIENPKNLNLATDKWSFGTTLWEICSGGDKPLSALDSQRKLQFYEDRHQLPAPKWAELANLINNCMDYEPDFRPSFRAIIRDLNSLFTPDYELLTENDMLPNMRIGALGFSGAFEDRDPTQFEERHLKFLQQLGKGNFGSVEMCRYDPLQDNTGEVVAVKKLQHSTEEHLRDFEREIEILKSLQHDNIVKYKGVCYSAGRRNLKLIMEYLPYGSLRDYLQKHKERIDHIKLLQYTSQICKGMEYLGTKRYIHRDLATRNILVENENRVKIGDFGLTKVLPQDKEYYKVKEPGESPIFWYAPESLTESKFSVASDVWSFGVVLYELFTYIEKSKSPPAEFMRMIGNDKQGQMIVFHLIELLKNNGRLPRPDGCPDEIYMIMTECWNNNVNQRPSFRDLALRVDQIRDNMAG

- IC50 [1]: 24 nM
- IC50 [2]: 764 nM
- IC50 [3]: > 10000 nM
- IC50 [4]: 159 nM
SMILES: Cn1cc(-c2cn3nccc3c(-c3cnn([C@]4(CC#N)C[C@@H](CC#N)C4)c3)n2)cn1
